From patent US20220160686A1, “MACROCYCLIC AZOLOPYRIDINE DERIVATIVES AS EED AND PRC2 MODULATORS” (Fulcrum Therapeutics, Inc., priority 2019, published 2022)
Where two headings read alike, the source gives them in different places.

What was measured:
EZH2/PRC2 complex = EZH2/PRC2 complex (Homo sapiens, UniProt O75530); test: Histone methyltransferase assay (radioisotope-based HotSpot); assay type: biochemical; details: EZH2/PRC2 complex 10 nM, core histone substrate 0.05 mg/ml, 3H-SAM 1 μM; read-out: IC50, inhibitory effects on the HMT enzyme
EZH2/PRC2 complex, sequence (O75530 whole entry): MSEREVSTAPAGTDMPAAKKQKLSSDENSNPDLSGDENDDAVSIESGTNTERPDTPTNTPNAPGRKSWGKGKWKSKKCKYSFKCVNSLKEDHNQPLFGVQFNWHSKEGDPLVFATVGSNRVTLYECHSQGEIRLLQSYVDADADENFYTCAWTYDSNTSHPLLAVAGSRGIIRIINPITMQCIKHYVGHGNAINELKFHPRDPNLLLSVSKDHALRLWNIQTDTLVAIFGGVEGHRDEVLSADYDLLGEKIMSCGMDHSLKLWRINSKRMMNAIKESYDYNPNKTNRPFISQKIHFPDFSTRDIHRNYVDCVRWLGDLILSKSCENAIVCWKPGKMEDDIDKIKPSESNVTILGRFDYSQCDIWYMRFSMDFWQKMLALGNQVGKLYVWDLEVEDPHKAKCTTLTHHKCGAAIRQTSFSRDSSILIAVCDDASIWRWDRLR
EZH2/PRC2 complex, sequence (Q15910 whole entry partner): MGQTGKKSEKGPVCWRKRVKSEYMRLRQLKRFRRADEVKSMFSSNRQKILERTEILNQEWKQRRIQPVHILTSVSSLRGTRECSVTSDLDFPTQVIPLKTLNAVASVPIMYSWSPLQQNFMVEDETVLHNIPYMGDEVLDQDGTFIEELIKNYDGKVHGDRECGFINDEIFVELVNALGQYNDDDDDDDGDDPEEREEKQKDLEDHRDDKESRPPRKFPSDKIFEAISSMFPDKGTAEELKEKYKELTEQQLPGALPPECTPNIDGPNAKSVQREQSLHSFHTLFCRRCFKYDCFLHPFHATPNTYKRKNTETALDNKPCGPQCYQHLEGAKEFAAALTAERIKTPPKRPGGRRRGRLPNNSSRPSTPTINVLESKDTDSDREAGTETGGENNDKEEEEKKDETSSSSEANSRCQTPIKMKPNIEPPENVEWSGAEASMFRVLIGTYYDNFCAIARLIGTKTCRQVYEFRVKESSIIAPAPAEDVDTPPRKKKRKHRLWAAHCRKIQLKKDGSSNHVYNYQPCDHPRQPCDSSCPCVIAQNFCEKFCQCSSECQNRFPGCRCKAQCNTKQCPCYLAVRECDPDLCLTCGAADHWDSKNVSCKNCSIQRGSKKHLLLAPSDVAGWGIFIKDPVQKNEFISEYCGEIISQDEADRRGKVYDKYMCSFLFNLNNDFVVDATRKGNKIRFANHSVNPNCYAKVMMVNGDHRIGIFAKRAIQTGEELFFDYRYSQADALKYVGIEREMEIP
EZH2/PRC2 complex, sequence (Q15022 whole entry partner): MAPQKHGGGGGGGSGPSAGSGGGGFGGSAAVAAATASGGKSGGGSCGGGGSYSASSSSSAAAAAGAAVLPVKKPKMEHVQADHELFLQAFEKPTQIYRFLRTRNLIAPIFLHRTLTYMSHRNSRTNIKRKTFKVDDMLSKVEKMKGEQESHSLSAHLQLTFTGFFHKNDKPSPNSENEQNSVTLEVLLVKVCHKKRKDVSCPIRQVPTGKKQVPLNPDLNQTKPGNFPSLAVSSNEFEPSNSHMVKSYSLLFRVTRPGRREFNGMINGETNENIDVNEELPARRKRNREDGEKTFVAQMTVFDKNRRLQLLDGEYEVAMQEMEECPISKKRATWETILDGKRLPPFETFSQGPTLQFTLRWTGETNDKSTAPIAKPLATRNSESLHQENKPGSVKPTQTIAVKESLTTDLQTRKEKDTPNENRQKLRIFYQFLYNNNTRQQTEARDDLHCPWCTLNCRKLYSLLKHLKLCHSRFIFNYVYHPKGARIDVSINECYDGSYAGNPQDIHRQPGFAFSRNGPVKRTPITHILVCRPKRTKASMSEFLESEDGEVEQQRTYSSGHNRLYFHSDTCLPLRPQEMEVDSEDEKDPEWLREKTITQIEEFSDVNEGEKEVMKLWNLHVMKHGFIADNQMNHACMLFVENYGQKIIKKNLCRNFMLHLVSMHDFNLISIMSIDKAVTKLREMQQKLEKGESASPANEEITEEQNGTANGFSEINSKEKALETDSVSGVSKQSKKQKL
Experimental: Effect of compounds of the present disclosure on EZH2/PRC2 complex methyltransferase functional activity was measured using the radioisotope-based HotSpot assay described by Horiuchi, K. Y., et al. Assay Drug Dev Technol. 11(4):227-36 (2013). Briefly, compounds were prepared in a 10-point 3-fold serial dilution in DMSO from a 10 mM stock in ECHO qualified plate using Assist Plus (Integra Biosciences) liquid handler. […] Nanoliter quantities of each compound's concentration series were transferred into the enzyme/substrate mix using (Echo 550, LabCyte Inc. Sunnyvale, Calif.) acoustic dispenser and pre-incubated for 20 min at room temperature. The methylation reaction was initiated by the addition of 1 μl of 5 μM S-Adenosyl-L-[methyl-^3H]methionine (^3H-SAM) and incubated at 30° C. for 1 h. The final concentration of the EZH2/PRC2 complex, core histone substrate and ^3H-SAM were 10 nM, 0.05 mg/ml, and 1 μM respectively. The % activity of test samples were calculated with reference to positive (no compound) and negative (no EZH2/PRC2) controls on the plate using Excel (Microsoft). The resulting values were exported to Prism (GraphPad software) to generate concentration response curves and IC50 values using the four-parameter logistic equation.

[1] = tested on: human P-glycoprotein HEK cells (HEK-P-gp); test: H3K27me3 immunocytochemistry assay in P-gp expressing HEK293T cells, with or without elacridar; assay type: cell-based; details: Homo sapiens, 4 days compound treatment
How it was run: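 HEK293T stably expressing human ABCB1 (vinblastine-selected), 1000 cells/well, treated with serially diluted compound for 4 days at 37° C, with or without 250 nM elacridar. Fixed cells stained with anti-H3K27me3 plus Alexa 488 secondary and Hoechst; imaged at 10×, nuclei identified by Hoechst.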

[2] = HEK293, 96 h, without elacridar, read-out: IC50, inhibitory activity on human P-glycoprotein HEK cells (HEK-P-gp)
[3] = HEK293, with 250 nM elacridar, read-out: IC50, inhibitory activity on human P-glycoprotein HEK cells (HEK-P-gp) pretreated with elacridar

Row | SMILES | IC50 (EZH2/PRC2 complex) | IC50 [1, 2] | IC50 [1, 3]
1 | Cn1nccc1-c1cc2c(n3cc(C(N)=O)nc13)NCc1c(F)ccc3c1[C@@H](CO3)CO2 [Compound 175, (S)-5-fluoro-12-(1-methyl-1H-pyrazol-5-yl)-6,7,15,15a-tetrahydro-1H-benzofuro[4,3-fg]imidazo[r,2′:1,6]pyrido[3,2-b][1,4]oxazonine-10-carboxamide] | < 25 nM | > 500 nM | 100 to 500 nM
2 | Cc1ncccc1-c1cc2c(n3cc(C#N)nc13)NCc1c(F)ccc3c1[C@@H](CO3)CO2 [Compound 186, (S)-5-fluoro-12-(2-methylpyridin-3-yl)-6,7,15,15a-tetrahydro-1H-benzofuro[4,3-fg]imidazo[1′,2′:1,6]pyrido[3,2-b][1,4]oxazonine-10-carbonitrile] | < 25 nM | 50 to 100 nM | 25 to 50 nM
3 | COC(=O)N1CCC(c2cc3c(n4cnnc24)NCc2c(F)ccc4c2C(CO4)CO3)CC1 [Compound 16, methyl (S)-4-(12-fluoro-7a,8,13,14-tetrahydro-7H-[1,2,4]triazolo[4′,3′:1,6]pyrido[3,2-b]benzofuro[4,3-fg][1,4]oxazonin-4-yl)piperidine-1-carboxylate] | < 25 nM | 100 to 500 nM | 50 to 100 nM
4 | CS(=O)(=O)c1ccc(-c2cc3c(n4cnnc24)NCc2c(F)ccc4c2C(CO4)CO3)cc1 (stereo not drawn) [Example 36] | < 25 nM | < 25 nM | < 25 nM
5 | Cc1ncc(-c2cc3c(n4cnnc24)NCc2c(F)cccc2CCO3)c(C)n1 [Compound 14, 4-(2,4-dimethylpyrimidin-5-yl)-12-fluoro-7,8,13,14-tetrahydro-[1,2,4]triazolo[4′,3′:1,6]pyrido[3,2-b]benzo[f][1,4]oxazonine] | 50 to 100 nM | > 500 nM | > 500 nM
6 | Cc1ncccc1-c1cc2c(n3cnnc13)NCc1cccc3c1[C@H](CO3)CO2 [Compound 1, (15R)-10-(2-methyl-3-pyridyl)-13,17-dioxa-3,5,7,8-tetrazapentacyclo[13.6.1.04,12.05,9.018,22] docosa-1(22),4(12),6,8,10,18,20-heptaene] | < 25 nM | 100 to 500 nM | < 25 nM
7 | Fc1ccc2c3c1CNc1c(cc(C4COC4)c4nncn14)OC[C@@H]3CO2 [Compound 12, (S)-12-fluoro-4-(oxetan-3-yl)-7a,8,13,14-tetrahydro-7H-[1,2,4]triazolo[4′,3′:1,6]pyrido[3,2-b]benzofuro[4,3-fg][1,4]oxazonine] | < 25 nM | 50 to 100 nM | 25 to 50 nM
8 | Cc1cc(C#N)ccc1-c1cc2c(n3cnnc13)NCc1c(F)ccc3c1[C@H](CO3)CO2 [Example 49] | < 25 nM | 25 to 50 nM | < 25 nM
9 | Cn1cc(Cc2cc3c(n4cnnc24)NCc2cccc4c2[C@@H](CO4)CO3)cn1 [Compound 7, (S)-4-((1-methyl-1H-pyrazol-4-yl)methyl)-7a,8,13,14-tetrahydro-7H-[1,2,4]triazolo[4′,3′:1,6]pyrido[3,2-b]benzofuro[4,3-fg][1,4]oxazonine] | < 25 nM | > 500 nM | 100 to 500 nM
10 | CC(=O)N1CCC(c2cc3c(n4cnnc24)NCc2cccc4c2[C@@H](CO4)CO3)CC1 [Compound 3, (S)-1-(4-(7a,8,13,14-tetrahydro-7H-[1,2,4]triazolo[4′,3′:1,6]pyrido[3,2-b]benzofuro[4,3-fg][1,4]oxazonin-4-yl)piperidin-1-yl)ethan-1-one] | < 25 nM | > 500 nM | 100 to 500 nM
11 | c1cc2c3c(c1)OC[C@H]3COc1ccc3nncn3c1NC2 [Compound 11, (S)-7a,8,13,14-tetrahydro-7H-[1,2,4]triazolo[4′,3′:1,6]pyrido[3,2-b]benzofuro[4,3-fg][1,4]oxazonine] | 100 to 500 nM | > 500 nM | > 500 nM
12 | Cc1ncccc1-c1cc2c(n3cnnc13)NCc1c(F)cccc1COC2 [Compound 6, 12-fluoro-4-(2-methylpyridin-3-yl)-6,8,13,14-tetrahydro-[1,2,4]triazolo[4′,3′:1,6]pyrido[3,2-c]benzo[g][1,5]oxazonine] | > 500 nM | > 500 nM | > 500 nM
13 | Cc1ncccc1-c1cc2c(n3cnnc13)NCc1c(F)cccc1CCO2 [Compound 5, 12-fluoro-4-(2-methylpyridin-3-yl)-7,8,13,14-tetrahydro-[1,2,4]triazolo[4′,3′:1,6]pyrido[3,2-b]benzo[f][1,4]oxazonine] | 25 to 50 nM | > 500 nM | > 500 nM
14 | CN(CC(F)(F)F)C(=O)c1cc2c(n3cnnc13)NCc1c(F)ccc3c1C(CO3)CO2 (stereo not drawn) [Example 38] | < 25 nM | 50 to 100 nM | 100 to 500 nM
15 | Cc1ncccc1-c1cc2c(n3cc(C(N)=O)nc13)NCc1c(F)ccc3c1[C@@H](CO3)CO2 [Compound 176, (S)-5-fluoro-12-(2-methylpyridin-3-yl)-6,7,15,15a-tetrahydro-1H-benzofuro[4,3-fg]imidazo[r,2′:1,6]pyrido[3,2-b][1,4]oxazonine-10-carboxamide] | 25 to 50 nM | > 500 nM | > 500 nM

More lines, main results first:

Row | IC50 (EZH2/PRC2 complex) | SMILES | IC50 [1, 2] | IC50 [1, 3]
16 | < 25 nM | Cn1nc(C(C)(C)C#N)cc1-c1cc2c(n3cnnc13)NCc1c(F)ccc3c1[C@@H](CO3)CO2 [Compound 169, (S)-2-(5-(12-fluoro-7a,8,13,14-tetrahydro-7H-[1,2,4]triazolo[4′,3′:1,6]pyrido[3,2-b]benzofuro[4,3-fg][1,4]oxazonin-4-yl)-1-methyl-1H-pyrazol-3-yl)-2-methylpropanenitrile] | < 25 nM | < 25 nM
17 | < 25 nM | Fc1cncnc1-c1cc2c(n3cnnc13)NCc1c(F)ccc3c1[C@@H](CO3)CO2 [Compound 164, (S)-12-fluoro-4-(5-fluoropyrimidin-4-yl)-7a,8,13,14-tetrahydro-7H-[1,2,4]triazolo[4′,3′:1,6]pyrido[3,2-b]benzofuro[4,3-fg][1,4]oxazonine] | < 25 nM | < 25 nM
18 | < 25 nM | Fc1ccc2c3c1CNc1c(cc(Br)c4nncn14)OC[C@@H]3CO2 [Compound 165, (S)-4-bromo-12-fluoro-7a,8,13,14-tetrahydro-7H-[1,2,4]triazolo[4′,3′:1,6]pyrido[3,2-b]benzofuro[4,3-fg][1,4]oxazonine] | > 500 nM | > 500 nM
19 | < 25 nM | Cn1nccc1-c1cc2c(n3cnnc13)NCc1c(F)ccc3c1C(CO3)CO2 (stereo not drawn) [Example 17] | < 25 nM | < 25 nM
20 | < 25 nM | COc1ncc(-c2cc3c(n4cnnc24)NCc2c(F)ccc4c2[C@H](CO4)CO3)cn1 [Example 30] | 50 to 100 nM | 25 to 50 nM
21 | < 25 nM | Cn1nc(OC(F)F)cc1-c1cc2c(n3cnnc13)NCc1c(F)ccc3c1[C@@H](CO3)CO2 [Compound 167, (S)-4-(3-(difluoromethoxy)-1-methyl-1H-pyrazol-5-yl)-12-fluoro-7a,8,13,14-tetrahydro-7H-[1,2,4]triazolo[4′,3′:1,6]pyrido[3,2-b]benzofuro[4,3-fg][1,4]oxazonine] | < 25 nM | < 25 nM
22 | < 25 nM | Cc1cn(-c2cc3c(n4cnnc24)NCc2c(F)ccc4c2[C@@H](CO4)CO3)cn1 [Compound 15, (S)-12-fluoro-4-(4-methyl-1H-imidazol-1-yl)-7a,8,13,14-tetrahydro-7H-[1,2,4]triazolo[4′,3′:1,6]pyrido[3,2-b]benzofuro[4,3-fg][1,4]oxazonine] | 25 to 50 nM | < 25 nM
23 | < 25 nM | Cn1nc(F)cc1-c1cc2c(n3cnnc13)NCc1c(F)ccc3c1[C@@H](CO3)CO2 [Compound 168, (S)-12-fluoro-4-(3-fluoro-1-methyl-1H-pyrazol-5-yl)-7a,8,13,14-tetrahydro-7H-[1,2,4]triazolo[4′,3′:1,6]pyrido[3,2-b]benzofuro[4,3-fg][1,4]oxazonine] | < 25 nM | < 25 nM
24 | < 25 nM | Cn1nc(C(F)(F)F)cc1-c1cc2c(n3cnnc13)NCc1c(F)ccc3c1[C@H](CO3)CO2 [Example 115] | 25 to 50 nM | < 25 nM
25 | < 25 nM | Cn1cc(Cc2cc3c(n4cnnc24)NCc2c(F)ccc4c2[C@@H](CO4)CO3)cn1 [Compound 10, (S)-12-fluoro-4-((1-methyl-1H-pyrazol-4-yl)methyl)-7a,8,13,14-tetrahydro-7H-[1,2,4]triazolo[4′,3′:1,6]pyrido[3,2-b]benzofuro[4,3-fg][1,4]oxazonine] | > 500 nM | 100 to 500 nM
26 | < 25 nM | Cc1ncoc1-c1cc2c(n3cnnc13)NCc1c(F)ccc3c1[C@@H](CO3)CO2 [Compound 189, (S)-12-fluoro-4-(4-methyloxazol-5-yl)-7a,8,13,14-tetrahydro-7H-[1,2,4]triazolo[4′,3′:1,6]pyrido[3,2-b]benzofuro[4,3-fg][1,4]oxazonine] | < 25 nM | < 25 nM
